No end group written: not given here.
Assays:
[1] = Body and organ weights of mice after myocardial I-R; format: in vivo, mouse; conditions: for Body Weight / Organ weight (mg), LV / Organ weight (mg), RV / Organ weight (mg), atria / Organ weight (mg), heart / Organ weight (mg), lung / Organ weight: body weight (mg/g), LV / Organ weight: body weight (mg/g), RV / Organ weight: body weight (mg/g), atria / Organ weight: body weight (mg/g), heart / Organ weight: body weight (mg/g), lung / Heart weight normalized to body weight versus sham / Effect on total heart weight and LV weight normalized to body weight: mice; for Body Weight (BW, g) / Organ weight: BW (mg/g), LV / Organ weight: BW (mg/g), RV / Organ weight: BW (mg/g), atria / Organ weight: BW (mg/g), heart / Organ weight: BW (mg/g), lung / BW: Table 7; for Heart weight normalized to body weight versus sham: 48 h reperfusion; for Effect on total heart weight and LV weight normalized to body weight: 7 days reperfusion
Experimental: Sample collection: After the study period (24 h, 48 h or 7 d), infarcted or sham-operated mice were euthanised, blood was collected by cardiac puncture using a 25G needle and 1 mL syringe coated with heparin (500 U/mL). Plasma was collected from mice after 24 h reperfusion to assess levels of cardiac troponin I (cTnI) levels; whole blood was collected from mice after 48 h reperfusion to assess total and differential white blood cell (WBC) numbers in the circulation. Lungs, atria, left and right ventricles were dissected, blotted dry, and weighed. Left ventricles (LV) were cut in half at the occlusion site, with the upper part fixed in Neutral Buffer Formalin (NBF, Thermo Fisher Scientific, Melbourne, Australia) and the apex placed in Tissue-Tek® optimal cutting temperature (OCT) compound (Tissue-Tek, Torrance, USA) for storage at −80° C.
Body and organ weights were measured to examine effects of drug treatments on systemic and cardiac characteristics in mice subjected to myocardial ischaemia-reperfusion injury or sham operation. Although there was no difference between the two vehicles (10% DMSO) in saline i.v. vs. 10% DMSO containing 0.8% Tween 20 in saline, i.p.), data from these two groups were combined for group analysis.
Assessment of cardiac inflammation in vivo: Lungs, atria, left and right ventricles from mice in Cohort 3 (following 60 min ischemia and 48 h reperfusion, optimal timing for detecting cardiac leukocyte infiltration) were dissected, blotted dry, and weighed. LV were cut in half at the occlusion site, and the apical half placed in Tissue-Tek® optimal cutting temperature compound (Tissue-Tek, Torrance, USA) for storage at −80° C. LV tissues were then sectioned at 6 μm for immunofluorescent detection of cardiac macrophage and neutrophil content. Sections were pre-incubated with 4% paraformaldehyde for 20 min and 10% normal goat serum for a further 30 min. Sections were then incubated at RT with either CD68+ primary antibody or Ly-6B.2 primary antibody (1:200, ABD Serotec, Raleigh, USA) for 1 h, followed by 30 min incubation with the Alexa Fluor 546 secondary antibody (1:200, Invitrogen, Carlsbad, USA). Finally, sections were incubated with 0.001% Hoechst 33342 (Invitrogen, Melbourne, Australia) for 30 min, to elicit nuclear staining. Single images were photographed using a Nikon A1R confocal microscope (Nikon Instruments Inc., NY, USA) under 20× magnification, and 9×9 single images were then automatically stitched together using NIS-Elements AR software (version 4.10 for Windows, Nikon Instruments Inc., NY, USA) to form each complete composite LV image. The images for infarct area were captured under 40× magnification, and the stitched images were then analyzed using Fiji software (version 1.48c for Max OS X, National Institutes of Health, USA). The threshold was set for each image, to enable optimal sensing and quantification of red fluorescence intensity above threshold, and the software then automatically quantified these red fluorescent signals.

[2] = Plasma levels and pharmacokinetics in mice; format: in vivo, mouse; conditions: for Tmax / half-life: mouse, in vivo, Table 9, mice

Row | Compound | Body Weight ([1]; Table 5, 48 h myocardial I-R) [g] | Organ weight (mg), LV ([1]; Table 5, 48 h myocardial I-R) [mg] | Organ weight (mg), RV ([1]; Table 5, 48 h myocardial I-R) [mg] | Organ weight (mg), atria ([1]; Table 5, 48 h myocardial I-R) [mg] | Organ weight (mg), heart ([1]; Table 5, 48 h myocardial I-R) [mg] | Organ weight (mg), lung ([1]; Table 5, 48 h myocardial I-R) [mg] | Organ weight: body weight (mg/g), LV ([1]; Table 5, 48 h myocardial I-R) [mg/g] | Organ weight: body weight (mg/g), RV ([1]; Table 5, 48 h myocardial I-R) [mg/g] | Organ weight: body weight (mg/g), atria ([1]; Table 5, 48 h myocardial I-R) [mg/g] | Organ weight: body weight (mg/g), heart ([1]; Table 5, 48 h myocardial I-R) [mg/g] | Organ weight: body weight (mg/g), lung ([1]; Table 5, 48 h myocardial I-R) [mg/g] | Body Weight ([1]; Table 6, 7 d myocardial I-R) [g] | Organ weight (mg), LV ([1]; Table 6, 7 d myocardial I-R) [mg] | Organ weight (mg), RV ([1]; Table 6, 7 d myocardial I-R) [mg] | Organ weight (mg), atria ([1]; Table 6, 7 d myocardial I-R) [mg] | Organ weight (mg), heart ([1]; Table 6, 7 d myocardial I-R) [mg] | Organ weight (mg), lung ([1]; Table 6, 7 d myocardial I-R) [mg] | Organ weight: body weight (mg/g), LV ([1]; Table 6, 7 d myocardial I-R) [mg/g] | Organ weight: body weight (mg/g), RV ([1]; Table 6, 7 d myocardial I-R) [mg/g] | Organ weight: body weight (mg/g), atria ([1]; Table 6, 7 d myocardial I-R) [mg/g] | also measured
1 | COc1cccc(Cc2cc(C)nn(C(C)C(=O)Nc3ccc(Br)cc3)c2=O)c1 (stereo not shown) [BIDI-001, N-(4-bromophenyl)-2-[5-(3-methoxybenzyl)-3-methyl-6-oxo-6H-pyridazin-1-yl]-propionamide] | 28.2 ± 1.0 | 105.0 ± 8.3 | 24.9 ± 3.1 | 14.6 ± 1.2 | 147 ± 11 | 157 ± 6 | 3.7 ± 0.2 | 1.0 ± 0.0 | 0.5 ± 0.0 | 5.2 ± 0.3 | 5.6 ± 0.2 | 24.3 ± 0.5 | 70.1 ± 2.9 | 19.0 ± 1.0 | 7.3 ± 0.8 | 96 ± 4 | 132 ± 3 | 2.9 ± 0.1 | 0.8 ± 0.3 | 0.3 ± 0.0 | Organ weight: body weight (mg/g), heart ([1]; Table 6, 7 d myocardial I-R): 4.0 ± 0.1 mg/g; Organ weight: body weight (mg/g), lung ([1]; Table 6, 7 d myocardial I-R): 4.7 ± 0.7 mg/g; Body Weight (BW, g) ([1]; 48 h myocardial I-R): 28 ± 1 g; Organ weight: BW (mg/g), LV ([1]; 48 h myocardial I-R): 3.7 ± 0.2 mg/g; Organ weight: BW (mg/g), RV ([1]; 48 h myocardial I-R): 1.0 ± 0.0 mg/g; Organ weight: BW (mg/g), atria ([1]; 48 h myocardial I-R): 0.5 ± 0.0 mg/g; Organ weight: BW (mg/g), heart ([1]; 48 h myocardial I-R): 5.2 ± 0.3 mg/g; Organ weight: BW (mg/g), lung ([1]; 48 h myocardial I-R): 5.6 ± 0.2 mg/g; BW ([1]; 7 days myocardial I-R): 24 ± 1 g; Organ weight: BW (mg/g), LV ([1]; 7 days myocardial I-R): 2.9 ± 0.1 mg/g; Organ weight: BW (mg/g), RV ([1]; 7 days myocardial I-R): 0.8 ± 0.3 mg/g; Organ weight: BW (mg/g), atria ([1]; 7 days myocardial I-R): 0.3 ± 0.0 mg/g; Organ weight: BW (mg/g), heart ([1]; 7 days myocardial I-R): 4.0 ± 0.1 mg/g; Organ weight: BW (mg/g), lung ([1]; 7 days myocardial I-R): 5.4 ± 0.1 mg/g; Heart weight normalized to body weight versus sham [1]: significantly increased; Effect on total heart weight and LV weight normalized to body weight [1]: significantly reduced; Tmax [2]: 0.5 h; half-life [2]: 7.6 h
2 | CC(C)C1C(NC(=O)Nc2ccc(Cl)cc2)C(=O)N(c2ccccc2)N1C (stereo not shown) [BIDI-002] | 27 ± 0.6 | 94.9 ± 7.5 | 22.9 ± 1.7 | 9.9 ± 2.8 | 132 ± 11 | 154 ± 6 | 3.5 ± 0.2 | 0.8 ± 0.0 | 0.5 ± 0.1 | 4.8 ± 0.3 | 5.7 ± 0.1 | 23.8 ± 0.9 | 89.0 ± 4.2 | 21.4 ± 1.6 | 7.8 ± 0.5 | 118 ± 6 | 138 ± 7 | 3.7 ± 0.1 | 0.9 ± 0.1 | 0.3 ± 0.0 | Organ weight: body weight (mg/g), heart ([1]; Table 6, 7 d myocardial I-R): 5.0 ± 0.2 mg/g; Organ weight: body weight (mg/g), lung ([1]; Table 6, 7 d myocardial I-R): 5.8 ± 0.3 mg/g; Body Weight (BW, g) ([1]; 48 h myocardial I-R): 27 ± 1 g; Organ weight: BW (mg/g), LV ([1]; 48 h myocardial I-R): 3.5 ± 0.2 mg/g; Organ weight: BW (mg/g), RV ([1]; 48 h myocardial I-R): 0.8 ± 0.0 mg/g; Organ weight: BW (mg/g), atria ([1]; 48 h myocardial I-R): 0.5 ± 0.1 mg/g; Organ weight: BW (mg/g), heart ([1]; 48 h myocardial I-R): 4.8 ± 0.3 mg/g; Organ weight: BW (mg/g), lung ([1]; 48 h myocardial I-R): 5.7 ± 0.1 mg/g; BW ([1]; 7 days myocardial I-R): 24 ± 1 g; Organ weight: BW (mg/g), LV ([1]; 7 days myocardial I-R): 3.7 ± 0.1 mg/g; Organ weight: BW (mg/g), RV ([1]; 7 days myocardial I-R): 0.9 ± 0.1 mg/g; Organ weight: BW (mg/g), atria ([1]; 7 days myocardial I-R): 0.3 ± 0.0 mg/g; Organ weight: BW (mg/g), heart ([1]; 7 days myocardial I-R): 5.0 ± 0.2 mg/g; Organ weight: BW (mg/g), lung ([1]; 7 days myocardial I-R): 5.8 ± 0.3 mg/g; Effect on total heart weight and LV weight normalized to body weight [1]: not; Effect on total heart weight and LV weight normalized to body weight ([1]; listed as Cmpd43): not shared; Plasma level approximately 20 h after the final dose (in words) ([2]; mice subjected to 7 days reperfusion, 50 mg/kg/day i.p.): micromolar range; Tmax [2]: 2 h; half-life [2]: 3.8 h
3 | Cc1cc(Cc2cccnc2)c(=O)n(CC(=O)Nc2ccc(Cl)cc2)n1 [MIPS-0010396] | – | – | – | – | – | – | – | – | – | – | – | – | – | – | – | – | – | – | – | – | Tmax [2]: 1 h; half-life [2]: 11.7 h
4 | Ac2-26: Annexin-A1 N-terminal peptide, peptide ANX-A1 mimetic (Ac-AMVSEFLKQAWFIENEEQEYVQTVK; UniProt P04083 2-26, looked up, fragment) | 28.2 ± 1.0 | 109.8 ± 5.5 | 24.3 ± 0.9 | 10.1 ± 0.7 | 144 ± 6 | 145 ± 9 | 3.8 ± 0.2 | 0.8 ± 0.0 | 0.3 ± 0.0 | 5.0 ± 0.2 | 5.0 ± 0.3 | 25.6 ± 1.0 | 102.9 ± 6.5 | 17.8 ± 2.4 | 8.3 ± 1.0 | 129 ± 10 | 147 ± 7 | 4.0 ± 0.2 | 0.7 ± 0.1 | 0.3 ± 0.0 | Organ weight: body weight (mg/g), heart ([1]; Table 6, 7 d myocardial I-R): 5.0 ± 0.2 mg/g; Organ weight: body weight (mg/g), lung ([1]; Table 6, 7 d myocardial I-R): 5.7 ± 0.2 mg/g; Heart weight normalized to body weight versus sham [1]: significantly increased; Effect on total heart weight and LV weight normalized to body weight [1]: not

Reference: patent US10328075B2, “Method of treatment and compounds for use therein” (Baker Heart and Diabetes Institute, priority 2015, dated 2019)
